Where “and” joins values, the source holds several entries; their conditions need not be identical. Equal entries are not always repeated. Marks after values point to notes of the source that are not given here.
Assay: Safety and tolerability: adverse events per CTCAE v3, dose-limiting toxicity, phase 1 study
Format: in vivo, human (Japanese patients with solid tumors)
Experimental: A standard 3 + 3 design determined the dose level assignment. Patients were assigned to one of four sequential dose cohorts of once-a-day dose regimen of oral linifanib: 0.05, 0.10, 0.20, or 0.25 mg/kg, administered in the morning. […] Dose-limiting toxicity (DLT) was defined as Grade 4 neutropenia lasting >7 days, Grade 4 thrombocytopenia or decreased hemoglobin, Grade 3 or greater thrombocytopenia (if blood transfusion was required), febrile neutropenia, non-hematological toxicity except for manageable nausea, vomiting, anorexia, diarrhea, constipation or electrolyte abnormality, or a toxicity that required suspension of study drug for >7 days.
Patients self-administered linifanib once daily, on a 21-day cycle after fasting, and treatment continued until disease progression or intolerable toxicity. […] The initial oral dose, 2.5–25.0 mg in increments of 2.5 mg, was determined by the patients’ weights. […] The dose was reduced by 5.0 mg for patients ≥86 kg in the 0.10 mg/kg cohort, for patients in the 0.20 mg/kg cohort who were ≥81 kg at the first reduction and 61–80 and ≥96 kg at the 2nd reduction, and for patients in the 0.25 mg/kg cohort who were ≥66 kg at the first reduction and ≥86 kg at the second reduction. Patients were discontinued if they required dose reduction, specified by cohort: Any reduction (0.05 mg/kg cohort); >1 reduction (0.10 mg/kg cohort, and patients ≤31 kg in the 0.20 mg/kg cohort with an initial 5 mg dose); >2 reductions (0.25 mg/kg cohort, and patients ≥32 kg in the 0.20 mg/kg cohort with an initial ≥7.5 mg dose).
Baseline evaluations included physical examination, body weight, vital signs, 12-lead electrocardiogram, ECOG PS assessment, pregnancy test, laboratory tests, and multiple-gated acquisition scan/echocardiogram. Tumor response and/or disease progression was assessed by computerized tomography (CT) scan or magnetic resonance imaging (MRI) per RECIST [20] at screening and on Day (D) 1 of every second cycle prior to the subsequent treatment period, until tumor progression or until final visit. Complete response and partial response (PR) were defined according to RECIST [20]; objective response rate (ORR) was defined as the proportion of patients with best response of PR or CR among the study population. Safety assessments included laboratory test results and adverse events (AEs), which were graded according to CTCAE v3 [18] and coded by medical dictionary of regulatory activities (MedDRA) 1.0.

Cc1ccc(F)c(NC(=O)Nc2ccc(-c3cccc4[nH]nc(N)c34)cc2)c1 [linifanib, N-(4-(3-amino-1H-indazol-4-yl)phenyl)-N’-(2-fluoro-5-methylphenyl)urea]
Neutropenia, linifanib-related AE, patients (0.20 mg/kg n = 3, G2): 2
Palmar-plantar erythrodysaesthesia, linifanib-related AE, patients (0.20 mg/kg n = 3, G2): 3
Thrombocytopenia, linifanib-related AE, patients (0.20 mg/kg n = 3, G2): 2
Weight decreased, linifanib-related AE, patients (0.20 mg/kg n = 3, G2): 2
Diarrhea, linifanib-related AE, patients (0.20 mg/kg n = 3, G3): 1
Hypertension, linifanib-related AE, patients (0.20 mg/kg n = 3, G3): 1
Proteinuria, linifanib-related AE, patients (0.20 mg/kg n = 3, G3): 1
dose-limiting toxicity observed (0.25 mg/kg cohort, one patient, dose interruption >7 days, discontinuation on D29): Grade 1 T-wave inversion
Grade 3 linifanib-related AEs (0.25 mg/kg dose): four
ALT increased, linifanib-related AE, patients (0.25 mg/kg n = 6, G1): 3
AST increased, linifanib-related AE, patients (0.25 mg/kg n = 6, G1): 6
Blood ALKP increased, linifanib-related AE, patients (0.25 mg/kg n = 6, G1): 4
Blood TG increased, linifanib-related AE, patients (0.25 mg/kg n = 6, G1): 2
Blood TSH increased, linifanib-related AE, patients (0.25 mg/kg n = 6, G1): 1
Blood cholesterol increased, linifanib-related AE, patients (0.25 mg/kg n = 6, G1): 2
Blood urine present, linifanib-related AE, patients (0.25 mg/kg n = 6, G1): 4
Fatigue, linifanib-related AE, patients (0.25 mg/kg n = 6, G1): 4
GGT increased, linifanib-related AE, patients (0.25 mg/kg n = 6, G1): 3
Leukopenia, linifanib-related AE, patients (0.25 mg/kg n = 6, G1): 3
Neutropenia, linifanib-related AE, patients (0.25 mg/kg n = 6, G1): 2
Proteinuria, linifanib-related AE, patients (0.25 mg/kg n = 6, G1): 1
Rash, linifanib-related AE, patients (0.25 mg/kg n = 6, G1): 6
Thrombocytopenia, linifanib-related AE, patients (0.25 mg/kg n = 6, G1): 2
Weight decreased, linifanib-related AE, patients (0.25 mg/kg n = 6, G1): 1
T-wave abnormality, linifanib-related AE, patients (0.25 mg/kg n = 6, G1, dose-limiting toxicity): 1^a
Anorexia, linifanib-related AE, patients (0.25 mg/kg n = 6, G2): 2
Blood TG increased, linifanib-related AE, patients (0.25 mg/kg n = 6, G2): 1
Blood TSH increased, linifanib-related AE, patients (0.25 mg/kg n = 6, G2): 1
Diarrhea, linifanib-related AE, patients (0.25 mg/kg n = 6, G2): 2
Fatigue, linifanib-related AE, patients (0.25 mg/kg n = 6, G2): 1
Hypertension, linifanib-related AE, patients (0.25 mg/kg n = 6, G2): 6
Leukopenia, linifanib-related AE, patients (0.25 mg/kg n = 6, G2): 2
Neutropenia, linifanib-related AE, patients (0.25 mg/kg n = 6, G2): 2
Palmar-plantar erythrodysaesthesia, linifanib-related AE, patients (0.25 mg/kg n = 6, G2): 3
Proteinuria, linifanib-related AE, patients (0.25 mg/kg n = 6, G2): 2
Thrombocytopenia, linifanib-related AE, patients (0.25 mg/kg n = 6, G2): 2
Weight decreased, linifanib-related AE, patients (0.25 mg/kg n = 6, G2): 1
ALT increased, linifanib-related AE, patients (0.25 mg/kg n = 6, G3): 1
Neutropenia, linifanib-related AE, patients (0.25 mg/kg n = 6, G3): 1
Proteinuria, linifanib-related AE, patients (0.25 mg/kg n = 6, G3): 2
dose reductions or interruptions for hypertension, neutropenia, or leucopenia (18 patients): no dose reductions or interruptions
ALT increased, linifanib-related AE, patients (All patients N = 18, any grade): 10 (56) n (%)
AST increased, linifanib-related AE, patients (All patients N = 18, any grade): 13 (72) n (%)
Anorexia, linifanib-related AE, patients (All patients N = 18, any grade): 7 (39) n (%)
Blood ALKP increased, linifanib-related AE, patients (All patients N = 18, any grade): 8 (44) n (%)
Blood TG increased, linifanib-related AE, patients (All patients N = 18, any grade): 11 (61) n (%)
Blood TSH increased, linifanib-related AE, patients (All patients N = 18, any grade): 8 (44) n (%)
Blood cholesterol increased, linifanib-related AE, patients (All patients N = 18, any grade): 10 (56) n (%)
Blood urine present, linifanib-related AE, patients (All patients N = 18, any grade): 9 (50) n (%)
Diarrhea, linifanib-related AE, patients (All patients N = 18, any grade): 8 (44) n (%)
Fatigue, linifanib-related AE, patients (All patients N = 18, any grade): 9 (50) n (%)
GGT increased, linifanib-related AE, patients (All patients N = 18, any grade): 8 (44) n (%)
Hypertension, linifanib-related AE, patients (All patients N = 18, any grade): 17 n (%) and 17 (94) n (%)
Leukopenia, linifanib-related AE, patients (All patients N = 18, any grade): 10 (56) n (%)
Neutropenia, linifanib-related AE, patients (All patients N = 18, any grade): 11 (61) n (%)
Palmar-plantar erythrodysaesthesia, linifanib-related AE, patients (All patients N = 18, any grade): 9 (50) n (%)
Proteinuria, linifanib-related AE, patients (All patients N = 18, any grade): 10 (56) n (%)
Rash, linifanib-related AE, patients (All patients N = 18, any grade): 11 (61) n (%)
T-wave abnormality, linifanib-related AE, patients (All patients N = 18, any grade): 2 (11) n (%)
Thrombocytopenia, linifanib-related AE, patients (All patients N = 18, any grade): 8 (44) n (%)
Weight decreased, linifanib-related AE, patients (All patients N = 18, any grade): 10 (56) n (%)
tolerability (Japanese patients with solid tumors, dose range 0.05–0.25 mg/kg): well tolerated
number of DLTs reported (all cohorts, 18 patients): Two
Grade 4 or 5 AEs (all doses, 18 patients): no Grade 4 or 5 AEs
patients who discontinued due to AEs (of 16 who discontinued): two

— publication PMC3362725, “An open-label, phase 1 study evaluating safety, tolerability, and pharmacokinetics of linifanib (ABT-869) in Japanese patients with solid tumors” (Cancer Chemotherapy and Pharmacology, 2012)
